Laboratory results: US5958981A, “γ-diketone compounds with inhibitory activity against platelet aggregation” (Meiji Seika Kabushiki Kaisha, priority 1994, dated 1999)
Counter-ions that a name gives are not always drawn.

The compounds below were run on human PRP (platelet rich plasma), platelet aggregation (assay: Inhibitory activity against ADP-induced platelet aggregation in human PRP (platelet rich plasma)). Conditions: aggregation inducer ADP final concentration 5 μM, preincubated 2 min.
Format: cell-based
Description: Pharmacological Test: Inhibitory activity against platelet aggregation
The inhibitory activity of the compound according to the present invention against platelet aggregation was examined with human PRP (platelet rich plasma).
Nine volumes of a blood sample was taken out of the vein of a normal human with a syringe in which one volume of a 3.8% sodium citrate solution was charged. The blood sample was centrifuged at 170×g at room temperature for 10 min. The supernatant thus obtained was isolated as PRP. The residual blood sample that PRP had been taken out was centrifuged at 2,700×g for 15 minutes. The supernatant was then taken as platelet poor plasma (PPP).
A platelet aggregation test was conducted with an aggligometer (PAM-8C, manufactured by MEBANICKS Co., Ltd.). Compounds under test were dissolved in a 50% DMSO saline, a 50% methanol saline, or physiological saline. The compound under test and PRP were preincubated for 2 min. An aggregation inducer ADP (CHRONO-PAR REAGENTS 384 ADP, CHRONO-LOG Corp.) was used in the form of a dilution with saline so that the final concentration is 5 μM.
The anti-platelet aggregation activity was determined as an inhibition rate to platelet aggregation effect of ADP in the absence of a compound under test as follows. [formula]

SMILES	IC50 [nM]
CCCCOC(=O)COc1ccc(C(=O)CCC(=O)c2cc3c(s2)CCNC3)cc1OCC(=O)OCCCC [Example 2, Di-n-butyl [[4-[1,4-dioxo-4-(4,5,6,7-tetrahydrothieno[3,2-c]pyridin-2-yl)butan-1-yl]-1,2-phenylene]dioxy]diacetate hydrochloride]	2000
O=C(O)COc1ccc(C(=O)CCC(=O)c2cc3c(s2)CCNC3)cc1OCC(=O)O [Example 1, [[4-[1,4-Dioxo-4-(4,5,6,7-tetrahydrothieno[3,2-c]pyridin-2-yl)butan-1-yl]-1,2-phenylene]dioxy]diacetic acid trifluoroacetate]	130
CCCCOC(=O)COc1ccc(C(=O)CCC(=O)c2ccc(C(=N)N)cc2)cc1 [Example 5, n-Butyl 4-[4-(4-amidinophenyl)-1,4-dioxobutan-1-yl]phenoxyacetate hydroiodide]	43
N=C(N)c1ccc(C(=O)CCC(=O)c2ccc(OCC(=O)O)c(OCC(=O)O)c2)cc1 [Example 3, [[4-[4-(4-Amidinophenyl)-1,4-dioxobutan-1-yl]-1,2-phenylene]dioxy]diacetic acid trifluoroacetate]	17
CCCCOC(=O)COc1ccc(C(=O)CCC(=O)c2ccc(C(=N)N)cc2)cc1OCC(=O)OCCCC [Example 4, Di-n-butyl [[4-[4-(4-amidinophenyl)-1,4-dioxobutan-1-yl]-1,2-phenylene]dioxy]diacetate trifluoroacetate]	23
N=C(N)c1ccc(C(=O)CCC(=O)c2ccc(OCC(=O)O)cc2)cc1 [Example 6, 4-[4-(4-Amidinophenyl)-1,4-dioxobutan-1-yl]phenoxyacetic acid hydrochloride]	< 100
